pIC50, pKi: −log10 of the molar value.
Columns and labels:
human D3 receptor = molecular target: T1, human D3 receptor (Homo sapiens, UniProt P35462); test: radioligand binding to dopamine receptor D3 ([3H] Spiperone); conditions: 10 μM ligand
T1 construct: expressed in transfected cells; host or cells: CHO
Description: For this purpose sDNA of human D3 receptor is expressed in CHO cells, as it was described in [Sokoloff P, Giros B, Martres M-P, Bouthenet M-L and Schwartz J-C. Molecular cloning and characterization of novel dopamine receptor (D3) as target for neuroleptics. Nature. […] Molecular cloning and characterization of novel dopamine receptor (D3) as target for neuroleptics. Nature. […] Spiperone is used as positive control.

human H1 receptor = molecular target: T2, human H1 receptor (Homo sapiens, UniProt P35367); test: radioligand binding to histamine receptor H1 ([3H] Pyrilamine); conditions: 10 μM ligand
T2 construct: expressed in transfected cells; host or cells: CHO-K1
Description: Biochem Biophys Res Comm. 197(3): 1601-1608, 1993]. […] Biochem Biophys Res Comm. 197(3): 1601-1608, 1993].
Pyrilamine is used as positive control.

human D4.2 receptor = molecular target: T3, human D4.2 receptor (Homo sapiens, UniProt P21917, DEL265-296); test: radioligand binding to dopamine receptor D4.2 ([3H] Spiperone); conditions: 10 μM ligand
T3 sequence (P21917 with tags, fused parts or gaps DEL265-296): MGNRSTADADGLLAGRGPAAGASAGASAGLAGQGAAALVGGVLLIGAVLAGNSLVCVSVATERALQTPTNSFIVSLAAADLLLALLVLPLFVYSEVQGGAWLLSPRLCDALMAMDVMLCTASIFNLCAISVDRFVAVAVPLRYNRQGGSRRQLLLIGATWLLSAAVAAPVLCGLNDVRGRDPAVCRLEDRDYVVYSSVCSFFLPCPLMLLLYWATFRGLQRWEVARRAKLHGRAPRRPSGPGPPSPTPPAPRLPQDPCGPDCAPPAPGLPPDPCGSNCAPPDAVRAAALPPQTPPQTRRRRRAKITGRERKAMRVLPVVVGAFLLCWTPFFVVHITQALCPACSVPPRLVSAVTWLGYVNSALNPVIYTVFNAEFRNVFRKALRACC
Method: Screening of the disclosed compounds for potential ability to interact with dopamine receptor D4.2 is carried out by method of radioligand binding. […] From the cells transfected in this way membrane species are prepared by homogenization of these cells in glass homogenizer with the subsequent separation of plasmatic membranes from cell nuclei, mitochondrias and cell wreckages by differential centrifugation. […] After incubation samples are filtered in vacuo on glass-microfiber filters G/F (Millipor, USA), filters are washed three times with cold solution of medium and radioactivity is measured by scintillation counter MicroBeta 340 (Perkin Elmer, USA). Nonspecific binding which makes up 10% of the overall binding is determined by incubation of membrane species with radioligand in the presence of 10 μM of Haloperidol.
Spiperone is used as positive control. Tested compounds' binding to the receptor is determined by their ability to displace radioligand and expressed in percent of displacement (% I). Values of % I are calculated according to the following equation:
wherein: TA—is overall radioactivity in the presence of radioligand only, CA—is radioactivity in the presence of radioligand and tested compound and NA—is radioactivity in the presence of radioligand and Haloperidol (10 μM).

recombinant human 5-HT1A = molecular target: T4, recombinant human 5-HT1A (Homo sapiens, UniProt P08908); test: radioligand binding to serotonin receptor 5-HT1A ([3H] 8-OH-DPAT); conditions: ligand concentration 1 μM
T4 construct: expressed in transfected cells; host or cells: CHO
T4 sequence (P08908 1-422): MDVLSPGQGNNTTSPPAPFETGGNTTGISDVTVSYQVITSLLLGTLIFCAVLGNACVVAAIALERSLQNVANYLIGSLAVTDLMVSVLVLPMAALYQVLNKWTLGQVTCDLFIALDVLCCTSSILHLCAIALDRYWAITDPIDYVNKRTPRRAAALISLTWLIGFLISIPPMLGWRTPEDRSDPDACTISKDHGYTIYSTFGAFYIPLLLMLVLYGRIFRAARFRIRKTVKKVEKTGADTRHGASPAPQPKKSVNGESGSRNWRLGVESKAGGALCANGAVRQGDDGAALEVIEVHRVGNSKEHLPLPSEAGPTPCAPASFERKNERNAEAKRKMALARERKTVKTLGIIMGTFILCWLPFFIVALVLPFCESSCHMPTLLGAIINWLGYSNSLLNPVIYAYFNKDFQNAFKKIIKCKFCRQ
Description: J Pharmacol Exp Ther. 306(1): 301-309, 2003]. […] Metergoline is used as positive control.

adrenergic receptor α1B = molecular target: T5, adrenergic receptor α1B (Rattus norvegicus, UniProt P15823); test: radioligand binding to adrenergic receptor α1B ([3H] Prazosin); conditions: 10 μM ligand
T5 construct: membrane species from rat liver (rat of Wistar breed) are prepared; from tissue; host or cells: rat (Wistar) liver membranes
T5 sequence (P15823 1-515): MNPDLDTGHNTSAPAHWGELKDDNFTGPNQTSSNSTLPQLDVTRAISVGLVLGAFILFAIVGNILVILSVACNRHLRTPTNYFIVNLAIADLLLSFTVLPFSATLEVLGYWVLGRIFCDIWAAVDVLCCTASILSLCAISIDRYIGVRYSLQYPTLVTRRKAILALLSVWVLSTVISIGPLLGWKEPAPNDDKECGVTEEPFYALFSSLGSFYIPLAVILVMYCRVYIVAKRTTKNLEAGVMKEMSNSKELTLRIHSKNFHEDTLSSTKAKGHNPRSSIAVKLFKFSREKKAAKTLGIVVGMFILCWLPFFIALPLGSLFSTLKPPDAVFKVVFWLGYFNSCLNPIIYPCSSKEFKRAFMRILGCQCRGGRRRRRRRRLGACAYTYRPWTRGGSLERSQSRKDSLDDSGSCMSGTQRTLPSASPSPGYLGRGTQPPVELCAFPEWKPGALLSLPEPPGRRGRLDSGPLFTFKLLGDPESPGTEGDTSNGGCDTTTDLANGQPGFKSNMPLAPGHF
Description: Species heterogeneity of hepatic α1A-, α1B-, and α1C-subtypes. Biochem Biophys Res Commun. 186:760-7676 1992]. […] Prazosin is used as positive control.

human α1D receptor = molecular target: T6, human α1D receptor (Homo sapiens, UniProt P25100); test: radioligand binding to adrenergic receptor α1D ([3H] Prazosin); conditions: 10 μM ligand
T6 construct: expressed in transfected cells; host or cells: HEK-293
T6 sequence (P25100 1-572): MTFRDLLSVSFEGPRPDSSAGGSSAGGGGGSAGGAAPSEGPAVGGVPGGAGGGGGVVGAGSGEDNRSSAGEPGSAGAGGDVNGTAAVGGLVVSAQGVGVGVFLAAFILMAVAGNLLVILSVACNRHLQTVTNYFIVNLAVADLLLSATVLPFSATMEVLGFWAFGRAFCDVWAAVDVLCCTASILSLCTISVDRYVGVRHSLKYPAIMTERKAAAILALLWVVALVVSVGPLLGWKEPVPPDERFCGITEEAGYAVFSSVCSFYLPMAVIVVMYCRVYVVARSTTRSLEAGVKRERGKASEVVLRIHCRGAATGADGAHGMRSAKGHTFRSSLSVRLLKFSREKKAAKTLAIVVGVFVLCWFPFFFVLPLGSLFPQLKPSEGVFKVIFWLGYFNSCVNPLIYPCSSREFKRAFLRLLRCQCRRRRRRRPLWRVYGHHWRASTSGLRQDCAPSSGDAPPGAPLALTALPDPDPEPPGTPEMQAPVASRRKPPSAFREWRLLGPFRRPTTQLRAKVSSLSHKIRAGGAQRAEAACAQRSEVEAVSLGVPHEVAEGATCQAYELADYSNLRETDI
Description: 6-C. […] For this purpose sDNA of human α1D receptor is expressed in HEK-293 cells, as it was described in [T L Theroux, T A Esbenshade, R D Peavy and K P Minneman. Coupling efficiencies of human alpha 1-adrenergic receptor subtypes: titration of receptor density and responsiveness with inducible and repressible expression vectors. Mol. Pharmacol.; 50: 1376-1387, 1996]. […] Prazosin is used as positive control.

[1] = molecular target: T7, recombinant human 5-HT6 receptor (Homo sapiens, UniProt P50406); test: radioligand binding to serotonin receptor 5-HT6 ([3H] Lysergic acid diethylamide)
T7 construct: expressed in transfected cells; host or cells: HeLa
Description: Mol. Pharmacol. 43:320-327, 1993]. […] Methiothepin is used as positive control.

human H2 receptor = molecular target: T8, human H2 receptor (Homo sapiens, UniProt P25021); test: radioligand binding to histamine receptor H2 ([125I] Aminopotentidine); conditions: 10 μM ligand
T8 construct: expressed in transfected cells; host or cells: CHO-K1
Description: Proc Natl Acad Sci USA. 87(5): 1658-1662, 1990]. […] Proc Natl Acad Sci USA. 87(5): 1658-1662, 1990]. […] Tiotidine is used as positive control.

human D2S receptor = molecular target: T9, human D2S receptor (Homo sapiens, UniProt P14416); test: radioligand binding to dopamine receptor D2S ([3H] Spiperone); conditions: 10 μM ligand
T9 construct: expressed in transfected cells; host or cells: CHO
Description: 7-C. […] For this purpose sDNA of human D2S receptor is expressed in CHO cells, as described in [Hayes G, Biden T J, Selbie L A and Shine J, Structural subtypes of the dopamine D2 receptor are functionally distinct. […] Mol. Endocrinol. […] Mol. Endocrinol. […] Spiperone is used as positive control.

male mice of BALB/c line = test: Passive Avoidance of mice in the Shuttle Chamber, memory disturbed by Scopolamine; format: in vivo; conditions: Scopolamine 0.3 mg/kg
Method: A shuttle chamber (Ugo Basile, Italy) consisted of two sections was used. […] The sections were connected through a hole which could be overlapped by a vertical door. The floor was made of transverse metal bars on which DC current impulses could be fed. Experiments were carried out in aged male mice of BALB/c line weighing 20-24 grams.
Each group consisted of at least 8 animals. Animal was placed in light section, and latent period of the first entry into dark chamber was registered. Then the vertical door was closed and the animal was punished by 0.6 mA DC current for 3 seconds. After that it was taken back to its homecage. In 22-24 hours the same animal was placed again in light section of the shuttle chamber and latent period of its first entry into dark section, the total time of its stay in light section, and the number of entries into dark section, were registered. Each monitoring lasted for 5 minutes.
Testing was carried out during the day time in isolated laboratory using white noise at level of about 70 decibel above human hearing threshold.
Scopolamine causes the disturbance of training (memory loss) that results in […].

mice = test: Mice Training in Morris Water Maze (Scopolamine); format: in vivo; conditions: unitary introduction of active ingredient
Method: Mice Training in Morris Water Maze. A round pool which was filled with water at 20-22° C. was used. A round ceramic platform of 14 cm height was placed in the pool. Animals's behavior was registered with automated computer videosystem in combination with software package of movement analysis Any-maze (Stoelting Co., US). Before testing mice suitable for training were selected. That was done by placing the platform 1 cm above the water level and putting an animal on the platform for 20 seconds. Then the mouse was sunk into the water on the opposite side of the pool, allowed to find the platform and climbed it within 60 seconds, where it was left for additional 20 seconds. After that the mouse was repeatedly immersed into water on the opposite side of the pool and allowed to look for platform. If it failed in finding the platform within 60 seconds the experimentator helped it to find the platform and climb it. If the mice could not find the platform itself in two consecutive attempts it was excluded from experiment.
During the next two days the platform was placed 0.5 centimeter lower the water level. Every day the mice were given four attempts for finding the platform within 60 seconds. The time interval between the attempts was 20 seconds, during which the mice stayed on the platform. Every day before the first attempt mouse was placed on the platform for 20 seconds. The time needed for finding and climbing the platform was registered. The animals were sunk in water in 3 different places on the side of the pool opposite to platform. On each day of two-day testing 35-40 minutes before the beginning of training the mice were injected intraintestinally with physiological solution, Scopolamine or Scopolamine in combination with investigated compound. At least 8 animals were used in each group.
On the third day the platform was removed and each animal was placed one time in the pool for a period of 60 seconds. The time each mouse spent in the area where the platform had been located during the previous days was registered. This time interval was regarded as a measure of effectiveness of training fulfilled during the previous two days. The testing was carried out during the day time in isolated laboratory using “white noise” at level of about 70 decibel above the human hearing threshold.

human 5-HT7 receptor = molecular target: T10, human 5-HT7 receptor (Homo sapiens, UniProt P34969); test: radioligand binding to serotonin receptor 5-HT7 ([3H] Lysergic acid diethylamide); conditions: ligand concentration 1 μM
T10 construct: expressed in transfected cells; host or cells: CHO
Description: For this purpose sDNA of human 5-HT7 receptor is expressed in CHO cells as it was described in [Shen Y, Monsma F J Jr, Metcalf M A, Jose P A, Hamblin M W, and Sibley DR. […] J. Biol. Chem. 1993, 268, 18200-18204]. […] J. Pharmacol. Exp. Ther. 1994, 268:1403-1410]. […] Methiothepin is used as positive control.

[2] = molecular target: T11, recombinant human 5-HT2A receptor (Homo sapiens, UniProt P28223); test: radioligand binding to serotonin receptor 5-HT2A ([3H] Ketanserin)
T11 construct: expressed in transfected cells; host or cells: CHO-K1
Method: 9-C. […] J. Neurochem. […] Ketanserin is used as positive control. […] Values of % I is calculated according to the following equation: […]

imidazoline receptor I2 = test: radioligand binding to imidazoline receptor I2 ([3H] Idazoxan); parameters: species or system rat; conditions: 10 μM ligand
Method: Determination of investigated compounds' binding to imidazoline I2 receptor is carried out according to the method described in [Brown C M, MacKinnon A C, McGrath J C, Spedding M and Kilpatrick A T, a2-Adrenoceptor subtypes and imidazoline-like binding in the rat brain. Br J. Pharmacol. 99:803-809, 1990]. […] Idazoxan is used as positive control.

[3] = molecular target: T12, recombinant human 5-HT2B receptor (Homo sapiens, UniProt P41595); test: radioligand binding to serotonin receptor 5-HT2B ([3H] Lysergic acid diethylamide)
T12 construct: expressed in transfected cells; host or cells: CHO-K1
T12 sequence (P41595 whole entry): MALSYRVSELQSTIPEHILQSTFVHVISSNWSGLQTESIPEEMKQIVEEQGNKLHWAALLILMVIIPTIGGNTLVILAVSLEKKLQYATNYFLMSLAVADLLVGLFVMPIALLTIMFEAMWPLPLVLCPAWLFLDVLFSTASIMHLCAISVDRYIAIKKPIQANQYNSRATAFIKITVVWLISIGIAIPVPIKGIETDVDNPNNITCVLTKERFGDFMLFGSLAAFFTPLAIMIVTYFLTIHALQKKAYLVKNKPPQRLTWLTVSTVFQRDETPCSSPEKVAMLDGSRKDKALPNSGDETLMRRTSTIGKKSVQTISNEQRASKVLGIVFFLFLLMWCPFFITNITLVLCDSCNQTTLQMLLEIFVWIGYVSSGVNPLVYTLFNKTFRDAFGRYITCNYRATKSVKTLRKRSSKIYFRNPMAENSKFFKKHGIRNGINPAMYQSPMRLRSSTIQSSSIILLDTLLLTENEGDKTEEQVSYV
Method: Screening of the disclosed compounds for potential ability to interact with serotonin receptor 5-HT2A is carried out by method of radioligand binding. For this purpose membrane species are prepared from CHO-K1 cells comprising recombinant human 5-HT2B receptor by homogenization of recombinant cells in glass homogenizer with the subsequent separation of plasmatic membranes from cell nuclei, mitochondrias and cell wreckages by differential centrifugation. […] After incubation the samples are filtered in vacuo on glass-microfiber filters G/F (Millipor, USA), filters are washed three times with cold solution of medium and radioactivity is measured by scintillation counter MicroBeta 340 (Perkin Elmer, USA). […] Ketanserin is used as positive control. The tested compounds' binding to the receptor is determined by their ability to displace the radioligand and is expressed in percent of displacement (% I). Values of % I are calculated according to the following equation:
wherein: TA—is the overall radioactivity in the presence of radioligand only, CA—is the radioactivity in the presence of radioligand and tested compound and NA—is the radioactivity in the presence of radioligand and Serotonin (10 μM).

T11 sequence (P28223 whole entry): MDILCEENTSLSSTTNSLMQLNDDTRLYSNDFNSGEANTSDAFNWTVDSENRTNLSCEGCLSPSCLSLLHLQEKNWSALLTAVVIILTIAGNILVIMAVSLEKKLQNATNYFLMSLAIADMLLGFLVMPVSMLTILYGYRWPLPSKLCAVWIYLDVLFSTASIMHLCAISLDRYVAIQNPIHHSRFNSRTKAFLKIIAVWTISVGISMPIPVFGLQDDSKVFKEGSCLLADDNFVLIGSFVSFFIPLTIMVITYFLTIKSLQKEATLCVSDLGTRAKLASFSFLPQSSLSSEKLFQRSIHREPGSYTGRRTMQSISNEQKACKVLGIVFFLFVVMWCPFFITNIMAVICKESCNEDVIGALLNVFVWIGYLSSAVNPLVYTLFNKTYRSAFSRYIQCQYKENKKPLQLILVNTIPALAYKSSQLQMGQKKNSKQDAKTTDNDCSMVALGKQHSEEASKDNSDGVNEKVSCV
T7 sequence (P50406 whole entry): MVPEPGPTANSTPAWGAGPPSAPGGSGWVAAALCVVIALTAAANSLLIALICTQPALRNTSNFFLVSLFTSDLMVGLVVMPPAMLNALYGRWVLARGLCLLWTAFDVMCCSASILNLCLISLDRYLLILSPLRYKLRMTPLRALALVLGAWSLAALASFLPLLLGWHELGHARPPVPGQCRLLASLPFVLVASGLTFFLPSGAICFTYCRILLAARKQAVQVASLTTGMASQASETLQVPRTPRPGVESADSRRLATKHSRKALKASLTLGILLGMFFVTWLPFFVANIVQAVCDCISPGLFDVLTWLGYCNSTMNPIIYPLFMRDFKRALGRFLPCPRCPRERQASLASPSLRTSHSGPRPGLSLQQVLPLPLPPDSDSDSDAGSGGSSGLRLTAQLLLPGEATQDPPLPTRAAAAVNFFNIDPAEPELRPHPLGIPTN
T2 sequence (P35367 whole entry): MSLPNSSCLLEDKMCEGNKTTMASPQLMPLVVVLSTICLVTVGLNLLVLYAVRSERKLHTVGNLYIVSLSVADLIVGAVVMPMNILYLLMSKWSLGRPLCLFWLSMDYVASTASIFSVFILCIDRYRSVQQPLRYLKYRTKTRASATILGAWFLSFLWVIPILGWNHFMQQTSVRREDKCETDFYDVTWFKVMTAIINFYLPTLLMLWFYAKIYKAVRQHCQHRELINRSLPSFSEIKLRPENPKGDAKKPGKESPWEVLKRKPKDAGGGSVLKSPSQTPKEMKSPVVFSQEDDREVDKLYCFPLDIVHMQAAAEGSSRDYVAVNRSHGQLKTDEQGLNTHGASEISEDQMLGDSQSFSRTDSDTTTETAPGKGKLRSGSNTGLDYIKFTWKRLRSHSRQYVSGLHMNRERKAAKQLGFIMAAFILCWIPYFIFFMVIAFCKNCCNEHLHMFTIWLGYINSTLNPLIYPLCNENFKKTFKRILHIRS
T8 sequence (P25021 whole entry): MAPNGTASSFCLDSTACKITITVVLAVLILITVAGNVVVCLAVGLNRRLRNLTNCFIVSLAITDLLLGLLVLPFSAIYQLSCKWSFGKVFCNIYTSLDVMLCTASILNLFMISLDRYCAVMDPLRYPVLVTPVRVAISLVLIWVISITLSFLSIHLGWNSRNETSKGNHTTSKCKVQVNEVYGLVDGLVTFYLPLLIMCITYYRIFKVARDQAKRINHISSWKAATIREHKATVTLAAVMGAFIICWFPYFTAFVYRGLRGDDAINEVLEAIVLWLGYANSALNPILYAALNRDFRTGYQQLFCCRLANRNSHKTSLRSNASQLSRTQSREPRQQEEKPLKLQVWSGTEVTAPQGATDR
T10 sequence (P34969 whole entry): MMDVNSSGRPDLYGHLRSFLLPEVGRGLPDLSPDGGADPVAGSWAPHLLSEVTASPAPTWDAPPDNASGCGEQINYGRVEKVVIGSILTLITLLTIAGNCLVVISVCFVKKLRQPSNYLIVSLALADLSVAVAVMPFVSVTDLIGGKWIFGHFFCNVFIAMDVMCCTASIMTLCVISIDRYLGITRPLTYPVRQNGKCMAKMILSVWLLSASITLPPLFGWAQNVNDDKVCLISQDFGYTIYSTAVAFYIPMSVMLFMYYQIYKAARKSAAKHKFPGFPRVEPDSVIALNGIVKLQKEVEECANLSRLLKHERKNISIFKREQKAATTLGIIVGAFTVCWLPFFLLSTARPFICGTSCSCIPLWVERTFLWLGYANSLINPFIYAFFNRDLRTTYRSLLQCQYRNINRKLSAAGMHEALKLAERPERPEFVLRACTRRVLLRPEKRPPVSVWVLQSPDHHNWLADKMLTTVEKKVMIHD
T9 sequence (P14416 1-414 isoform P14416-2): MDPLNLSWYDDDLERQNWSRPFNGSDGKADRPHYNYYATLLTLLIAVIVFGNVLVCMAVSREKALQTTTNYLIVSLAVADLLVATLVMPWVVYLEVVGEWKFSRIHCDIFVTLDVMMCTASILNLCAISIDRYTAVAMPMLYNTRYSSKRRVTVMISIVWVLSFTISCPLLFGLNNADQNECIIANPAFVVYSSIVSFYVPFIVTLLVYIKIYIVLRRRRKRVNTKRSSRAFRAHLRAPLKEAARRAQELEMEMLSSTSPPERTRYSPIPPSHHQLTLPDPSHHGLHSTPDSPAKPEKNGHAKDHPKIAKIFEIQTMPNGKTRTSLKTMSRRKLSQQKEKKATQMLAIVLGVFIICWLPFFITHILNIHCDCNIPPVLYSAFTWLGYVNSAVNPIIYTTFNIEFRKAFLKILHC
T1 sequence (P35462 whole entry): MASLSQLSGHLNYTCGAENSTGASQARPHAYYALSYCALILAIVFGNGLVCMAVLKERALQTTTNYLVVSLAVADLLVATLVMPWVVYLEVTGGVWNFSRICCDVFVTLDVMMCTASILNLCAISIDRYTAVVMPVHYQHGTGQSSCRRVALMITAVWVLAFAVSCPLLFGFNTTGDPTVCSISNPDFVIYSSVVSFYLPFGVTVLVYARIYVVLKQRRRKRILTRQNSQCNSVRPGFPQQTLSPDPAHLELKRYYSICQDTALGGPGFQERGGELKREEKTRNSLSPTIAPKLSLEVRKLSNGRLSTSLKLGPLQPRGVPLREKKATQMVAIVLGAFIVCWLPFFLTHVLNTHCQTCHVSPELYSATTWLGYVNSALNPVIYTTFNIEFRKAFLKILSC

Cc1ccc2c(c1)[C@H]1CN(C)CCC[C@@H]1N2CCc1ccc(C)nc1 (relative stereo) [1.6.2(11)]
Dopamine receptor D3, % inhibition (human D3 receptor): 36%
Histamine receptor H1, % inhibition (human H1 receptor): 100%
Dopamine receptor D4.2, % inhibition (human D4.2 receptor): 6%
inhibition at 1 µM (recombinant human 5-HT1A): 55%
α-Adrenoceptor α1B, % inhibition (adrenergic receptor α1B): 94%
α-Adrenoceptor α1D, % inhibition (human α1D receptor): 90%
inhibition at 1 µM ([1]; ligand concentration 1 μM, read-out: 5-HT6 % inhibition): 93%
Histamine receptor H2, % inhibition (human H2 receptor): 76%
Dopamine receptor D2S, % inhibition (human D2S receptor): 31%

Cc1ccc2c(c1)c1c(n2CCc2ccccc2)CCN(C)C1 [1.1.2(1-2), 2,8-dimethyl-5-phenethyl-1,2,3,4-tetrahydro-1H-pyrido[4,3-b]indole]
enhancement of memory disturbed by Scopolamine (passive avoidance) (male mice of BALB/c line): improve memory
memory disorders caused by Scopolamine in Morris water maze (mice): decreasing memory disorders coused by Scopalomine

Cc1ccc2c(c1)c1c(n2CCc2ccncc2)CCCN(C)C1.Cl.Cl [1.2.2(5-3)•2HCl]
memory disorders caused by Scopolamine in Morris water maze (mice): decreasing memory disorders coused by Scopalomine

Cc1ccc(S(=O)(=O)n2c3c(c4cc(C)ccc42)CN(C)CCC3)cc1.Cl [1.8.1(3)•HCl]
Histamine receptor H1, % inhibition (human H1 receptor): 95%
inhibition at 1 µM (human 5-HT7 receptor): 99%
pIC50 [2]: 7.65
pKi [2]: 8.19
nH 5-HT2A [2]: 1.01
α-Adrenoceptor α1D, % inhibition (human α1D receptor): 55%
pIC50 [1]: 7.46
pKi [1]: 7.80
nH 5-HT6 [1]: 1.07
Histamine receptor H2, % inhibition (human H2 receptor): 82%
imidazoline I2 receptor % inhibition (imidazoline receptor I2): 17%
nH 5-HT2B [3]: 0.784
pIC50 ([3]; read-out: IC50 5-HT2B): 6.50
pKi ([3]; read-out: Ki 5-HT2B): 6.69
